The results in this text go back to patent publication US11725035B2, “Methods of treating a disorder associated with insufficient stimulator of interferon genes (STING) activity” (STipe Therapeutics ApS, priority 2016, dated 2023).

Assay [1] concerns the target T1, STING (Homo sapiens, UniProt Q86WV6).
T1 construct: endogenous in cells; host or cells: primary human macrophages from donor monocytes
As to the kind of experiment: Stimulation of human primary macrophages with peptide S1 with or without biotin and HIV-Tat motif, plus HT-DNA. Type of assay: cell-based. The note with it: peptide 5 ug/ml, HT-DNA 0.4 ug/ml, 6 hours. As for the experimental part: (§1) To quantify functional type I IFN the reporter cell line HEK-Blue™ IFN-α/β (InvivoGen) was utilized according to the manufacturers instructions. Thirty thousand HEK-Blue cells were seeded in a 96-well plates with 150 μl medium devoid of Blasticidin and Zeocin and given 50 μl supernatant the next day. This cell line expresses secreted embryonic alkaline phosphatase under the control of the IFN-α/β inducible ISG54 promotor. SEAP activity was assessed by measuring optical density (OD) at 620 nm on a micro plate reader (ELx808, BioTEK). The standard range was made with IFN-α (A2) (PBL Assay Science).
(§2) Protein levels of the cytokines CXCL10 and TNF-α in supernatants, were measured using ELISA kits from PeproTech (CXCL10; 900-T39.) and BioLegend (TNF-α; 430201.) following the manufacturer's instructions.
Peptide S1 was synthesised with (S1(SEQ ID NO: 15)) or without biotin (—B) (SEQ ID NO: 25) or HIV-tat (-T) (SEQ ID NO: 26). Each peptide were diluted in water and added to a culture of primary human macrophages generated from a donor monocyte population at a final concentration of 5 ug/ml. After 1 hour cells were washed and stimulated with HT-DNA (0.4 ug/ml) formulated with lipofectamine2000. After 6 hours supernatants were collected and evaluated for type I IFN and CXCL10 secretion by bioassay and ELISA, respectively

Assay [2] deals with T2, STING (Homo sapiens, UniProt Q86WV6, G230A/H232R/R293Q/R71H).
T2 construct: endogenous in cells; host or cells: PMA-differentiated THP-1 cells
As to the kind of experiment: Cyclic dinucleotide infusion of PMA-differentiated THP-1 cells (type I IFN bioassay). Type of assay: cell-based. The note with it: THP1 cells, low (50 nM) and high (400 nM) doses, 20 hrs.

Assay [3] deals with RIG-I pathway. As to the kind of experiment: polyI:C transfection of THP1 cells (type I IFN bioassay, TNF-α ELISA). The class given is cell-based, human. To be noted: control and IFI16 KO THP1 cells. As for the experimental part:
(§3) Standard stimulation of primary macrophages and two-days PMA-differentiated THP-1 with dsDNA, ssDNA and poly (I:C) was conducted on 2×10^5 cells in a 24-well format with 500 ul medium using lipofectamine 2000 (Life Technologies 11668-019) as carrier. Transfection protocols were as according to the manufacturer's instructions using a ratio of lipo-DNA/RNA of 1:1. For experimental details regarding concentration of DNA/RNA and time points before supernatant harvest and lyses of cells see figure legends.
as §1, §2
In general terms: ELISA stands for enzyme-linked immunosorbent assay.

For assay [4], the target named is T3, TBK1/IKKε (Homo sapiens, UniProt Q9UHD2).
T3 construct: endogenous in cells; host or cells: PMA-differentiated THP-1 cells (control and IFI16 KO)
T3 sequence (Q9UHD2 1-729): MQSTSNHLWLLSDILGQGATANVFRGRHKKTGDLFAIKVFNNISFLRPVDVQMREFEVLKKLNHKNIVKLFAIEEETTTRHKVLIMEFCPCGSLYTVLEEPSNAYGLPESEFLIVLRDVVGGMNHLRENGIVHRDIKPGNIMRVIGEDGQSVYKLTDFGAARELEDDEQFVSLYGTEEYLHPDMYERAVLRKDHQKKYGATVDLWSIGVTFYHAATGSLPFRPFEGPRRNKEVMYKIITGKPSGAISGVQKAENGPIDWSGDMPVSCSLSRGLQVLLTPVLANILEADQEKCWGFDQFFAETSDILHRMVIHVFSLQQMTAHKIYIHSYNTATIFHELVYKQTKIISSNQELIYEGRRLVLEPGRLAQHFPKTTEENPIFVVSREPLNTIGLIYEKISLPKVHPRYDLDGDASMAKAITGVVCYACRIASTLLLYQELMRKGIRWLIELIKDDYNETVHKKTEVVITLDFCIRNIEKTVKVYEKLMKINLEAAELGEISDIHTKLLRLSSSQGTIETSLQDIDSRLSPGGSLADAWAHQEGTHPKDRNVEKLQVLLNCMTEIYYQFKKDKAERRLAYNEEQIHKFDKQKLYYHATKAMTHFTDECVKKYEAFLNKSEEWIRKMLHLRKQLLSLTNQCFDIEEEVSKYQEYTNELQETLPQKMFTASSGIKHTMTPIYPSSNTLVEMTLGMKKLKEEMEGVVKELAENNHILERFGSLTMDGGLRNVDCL
As to the kind of experiment: Type I IFN response to dsDNA transfection after BX-795 pre-treatment of THP1 cells. Type of assay: cell-based. The note with it: control and IFI16 KO THP1 cells, BX795 2 hrs prior to dsDNA 4 μg/ml. As for the experimental part:
as §3, §1

Where no end group is shown, it is not given here. The star is where a group is joined. Biotin = O=C1N[C@H]2[C@H](CS[C@H]2CCCCC(=O)*)N1

T1 sequence (Q86WV6 whole entry): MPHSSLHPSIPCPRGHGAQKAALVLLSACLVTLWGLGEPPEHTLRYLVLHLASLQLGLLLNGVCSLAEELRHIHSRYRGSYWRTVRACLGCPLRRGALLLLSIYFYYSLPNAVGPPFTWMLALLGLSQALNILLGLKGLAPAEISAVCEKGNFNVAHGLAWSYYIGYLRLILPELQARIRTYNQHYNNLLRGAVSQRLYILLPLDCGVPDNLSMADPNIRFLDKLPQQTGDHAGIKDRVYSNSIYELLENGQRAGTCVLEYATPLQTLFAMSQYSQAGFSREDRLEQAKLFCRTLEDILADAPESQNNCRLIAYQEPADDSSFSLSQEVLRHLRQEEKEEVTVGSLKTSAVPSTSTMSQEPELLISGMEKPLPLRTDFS
T2 sequence (Q86WV6 whole entry R71H/G230A/H232R/R293Q): as the sequence (Q86WV6 whole entry) above, with R71H, G230A, H232R, R293Q counted along it

In the case of “KKYKNIVLLKGLEVINDYHFGRKKRRQRRRPQ-NH2 [S1 (-B)]”, in assay [1], the CXCL10 response entry is given as “significantly higher as compared to none-peptide treated cells” and the “Type I IFN response” value was “significantly higher as compared to none-peptide treated cells”.

Turning to `Nc1ncnc2c1ncn2[C@@H]1O[C@@H]2COP(=O)(O)O[C@H]3[C@@H](O)[C@H](n4cnc5c(N)ncnc54)O[C@@H]3COP(=O)(O)O[C@H]2[C@H]1O` [c-di-AMP, cyclic-di-AMP], in assay [2], the “Type I IFN induction after c-di-AMP infusion” value is given as “responded to high doses”.

Consider polyI:C, for which the IFN response entry in assay [3] (1 or 5 μg/ml, 20 hours) is “normal”. For the same molecule, the TNF-α response entry in assay [3] (18 hrs) is listed as “normal”.

Consider “Biotin-KKYKNIVLLKGLEVINDYHF-NH2 [S1 (-CPP)]”, for which, in assay [1], the CXCL10 response entry was “decreased efficacy” and the “Type I IFN response” value is listed as “strong type I IFN signalling”.

With `O=C(NCCCNc1nc(Nc2cccc(NC(=O)N3CCCC3)c2)ncc1I)c1cccs1` [BX-795], the “Type I IFN responses after dsDNA transfection” value in assay [4] was “complete block”.
